Where two headings read alike, the source gives them in different places.
Assay: Pharmacokinetics in SD rat
Type: in vivo
Conditions: male, plasma; for AUC(0-t): read-out: Curve area AUC0-t; for half-life: read-out: Half-life period T1/2(h) (converted)
Protocol: Taking a SD rat as a test animal, the SD rat was administrated with the compound of the present invention by intravenous injection and/or intragastric administration, and drug concentrations in plasma at different times were determined by a IC/MS/MS method to study pharmacokinetic characteristics of the compound of the present invention in the SD rat.
SD rats, male, 195 g to 235 g, 6 weeks old to 8 weeks old, purchased from Shanghai JieSiJie Laboratory Animal Co., Ltd.
Preparation of drug administrated by intravenous injection: a proper amount of compound to be tested was added to a proper amount of DMAC; (30% Soltol HS 15): Saline=10%: 10%: 80% (v/v/v), and shaken in a vortex manner, so as to prepare a final solution with a concentration of 0.5 mg/mL.
Preparation of drug administrated by intragastric administration: a proper amount of compound to be tested was added to a proper amount of DMAC: (30% Soltol HS 15): Saline=10%: 10%: 80% (v/v/v), and shaken in a vortex manner, so as to prepare a final solution with a concentration of 1 mg/mL.
SD rats were divided into an intravenous injection group of the compound to be tested (3 rats/group) and an intragastric administration group (3 rats/group) of the compound to be tested.
Intravenous injection group: the drug was administrated by dorsalis pedis vein injection (according to a dosage of 1 mg/kg and a volume of 2 mL/kg) without fasting.
Intragastric administration group: the drug was administrated by intragastric administration (according to a dosage of 10 mg/kg and a volume of 10 mL/kg) after fasting overnight, and food was taken 4 hours after administration.
Intravenous injection group: about 150 μL of blood was collected into an EDTA-K2 anticoagulant tube through a jugular vein 0.083 hour, 0.25 hour, 0.5 hour, 1 hour, 2 hours, 4 hours, 8 hours and 24 hours after administration.
Intragastric administration group; about 150 μL of blood was collected into an EDTA-K2 anticoagulant tube through a jugular vein 0.25 how, 0.5 hour, 1 hour, 2 hours, 4 hours, 8 hours and 24 hours after administration.
The blood sample was stored in wet ice first, and plasma was centrifugally separated within 15 minutes after sampling (centrifugation conditions: 2,000 g, 4° C., 5 minutes). The collected upper plasma was stored at −70° C. before analysis.
Contents of the compound to be tested in rat plasma after intravenous injection and intragastric administration were determined by LC-MS/MS.

[1] = iv, injection administration 1 mg/kg
[2] = po, intragastric administration 10 mg/kg

AUC(0-t) [1]: 532 ± 87.8 ng·h/mL | half-life [1]: 0.942 ± 0.078 h | bioavailability (po, intragastric 10 mg/kg vs injection 1 mg/kg, read-out: Bioavailability F(%)): 72.5 ± 13.7% | Cmax (po, intragastric administration 10 mg/kg, read-out: Blood concentration Cmax): 1790 ± 510 ng/mL | AUC(0-t) [2]: 3860 ± 728 ng·h/mL | half-life [2]: 1.54 ± 0.784 h
Compound: COCC[C@@H](C(=O)Nc1ccc2nn(C)cc2c1)N1CC(=O)N(c2cc(Cl)ccc2-n2cc(Cl)nn2)CC1=O [Example 96, (S)-2-(4-(5-chloro-2-(4-chloro-1H-1,2,3-triazol-1-yl)phenyl)-2,5-dioxopiperazin-1-yl)-4-methoxy-N-(2-methyl-2H-indazol-5-yl)butanamide]

Source: patent US20230373972A1, “PIPERAZINE DERIVATIVE, PREPARATION METHOD THEREFOR AND USE THEREOF” (Zhejiang Hisun Pharmaceutical Co., Ltd., priority 2020, published 2023)
